ChEMBL document CHEMBL1130564, “The dipeptide neurokinin-1 receptor antagonist S19752 is a potent and long-acting inhibitor of bronchoconstriction when administered by aerosol to the guinea pig in vivo” (Bioorg Med Chem Lett, 1997)

What was measured:
Substance-K receptor [1] = biological target: T1, Substance-K receptor (Homo sapiens, UniProt P21452); assay: Binding affinity for NK-2 receptor was determined in a radioligand binding assay using chinese hamster ovary cells.; format: cell-based
T1 sequence (P21452 whole entry): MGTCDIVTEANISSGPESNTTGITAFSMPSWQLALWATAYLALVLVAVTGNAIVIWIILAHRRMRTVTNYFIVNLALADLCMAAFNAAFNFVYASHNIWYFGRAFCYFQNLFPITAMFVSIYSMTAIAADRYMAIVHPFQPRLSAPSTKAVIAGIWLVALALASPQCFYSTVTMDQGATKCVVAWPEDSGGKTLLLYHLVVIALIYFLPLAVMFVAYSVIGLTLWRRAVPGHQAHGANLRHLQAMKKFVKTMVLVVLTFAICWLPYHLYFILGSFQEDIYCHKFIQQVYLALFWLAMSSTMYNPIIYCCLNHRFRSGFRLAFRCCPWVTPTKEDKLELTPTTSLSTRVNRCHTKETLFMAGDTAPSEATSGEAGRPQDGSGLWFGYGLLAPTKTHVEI

Substance-K receptor [2] = biological target: T2, Substance-K receptor (Oryctolagus cuniculus, UniProt P79218); assay: […] for NK-2 receptor was determined in vitro using isolated rabbit pulmonary artery.
T2 sequence (P79218 whole entry): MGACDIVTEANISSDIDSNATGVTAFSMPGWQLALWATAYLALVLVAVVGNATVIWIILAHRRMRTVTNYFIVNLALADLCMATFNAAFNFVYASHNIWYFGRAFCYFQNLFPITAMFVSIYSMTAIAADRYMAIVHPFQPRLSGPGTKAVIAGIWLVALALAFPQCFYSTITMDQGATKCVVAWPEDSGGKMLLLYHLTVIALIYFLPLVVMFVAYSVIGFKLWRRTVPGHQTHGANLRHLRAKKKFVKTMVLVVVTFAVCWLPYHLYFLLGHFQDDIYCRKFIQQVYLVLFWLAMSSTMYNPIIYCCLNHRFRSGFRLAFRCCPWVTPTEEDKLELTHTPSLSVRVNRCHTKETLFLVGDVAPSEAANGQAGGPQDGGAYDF

Neuromedin-K receptor [3] = biological target: T3, Neuromedin-K receptor (Rattus norvegicus, UniProt P16177); assay: […] for NK-3 receptor was determined in vitro using isolated rat portal vein.
T3 sequence (P16177 whole entry): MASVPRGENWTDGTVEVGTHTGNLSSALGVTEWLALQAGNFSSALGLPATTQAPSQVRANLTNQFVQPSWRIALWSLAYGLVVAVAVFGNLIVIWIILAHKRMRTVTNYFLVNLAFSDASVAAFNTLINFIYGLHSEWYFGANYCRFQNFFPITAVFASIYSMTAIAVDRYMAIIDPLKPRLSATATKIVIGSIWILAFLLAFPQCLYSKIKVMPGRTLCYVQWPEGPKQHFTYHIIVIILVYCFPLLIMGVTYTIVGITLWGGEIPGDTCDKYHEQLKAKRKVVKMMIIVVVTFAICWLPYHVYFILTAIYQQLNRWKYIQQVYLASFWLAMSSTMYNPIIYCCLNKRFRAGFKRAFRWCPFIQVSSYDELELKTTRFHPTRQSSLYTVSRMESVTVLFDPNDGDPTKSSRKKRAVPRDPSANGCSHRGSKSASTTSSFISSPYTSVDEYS

Cavia porcellus [4] = species on record: Cavia porcellus; assay: Inhibition of capsaicin-induced plasma extravasation in guinea pig bronchi; format: functional
Cavia porcellus [5] = assay: Tested for the ability to inhibit substance P induced bronchoconstriction in guinea pig and the dose that was effective even after 40 minutes of compound administration, was reported.; format: functional
Cavia porcellus [6] = assay: Tested for the ability to inhibit substance P induced bronchoconstriction, in guinea pig, after intravenous administration. The inhibitory dose at 3 minutes, was reported.; format: functional; settings: 0.05 h, read-out: ID50 (the source's name)
Substance-P receptor = Substance-P receptor (Homo sapiens, UniProt P25103); assay: Binding affinity for NK-1 receptor was determined in a radioligand binding assay using IM9 human lymphoblastoma cell line.
Substance-K receptor [7] = biological target: T2, Substance-K receptor; assay: Antagonistic potency for NK-2 receptor was determined in vitro, using isolated rabbit pulmonary artery.; format: functional; settings: read-out: pA2 (converted)
Neuromedin-K receptor [8] = biological target: T3, Neuromedin-K receptor; assay: Antagonistic potency for NK-3 receptor was determined in vitro, using isolated rat portal vein.; format: functional; settings: read-out: pA2 (converted)

Chain of Substance-P receptor (P25103 whole entry): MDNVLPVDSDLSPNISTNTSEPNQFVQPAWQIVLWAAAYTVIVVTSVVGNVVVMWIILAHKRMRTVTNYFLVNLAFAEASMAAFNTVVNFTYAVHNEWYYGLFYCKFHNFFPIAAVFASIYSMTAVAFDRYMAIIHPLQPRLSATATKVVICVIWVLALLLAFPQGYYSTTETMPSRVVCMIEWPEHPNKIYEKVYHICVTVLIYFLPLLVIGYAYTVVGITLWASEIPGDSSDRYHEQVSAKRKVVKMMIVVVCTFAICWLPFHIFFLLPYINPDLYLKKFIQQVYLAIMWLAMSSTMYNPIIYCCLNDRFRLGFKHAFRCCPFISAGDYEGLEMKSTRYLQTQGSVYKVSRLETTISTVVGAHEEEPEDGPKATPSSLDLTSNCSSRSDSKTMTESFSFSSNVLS

Ki (Substance-K receptor [1]) [µM]	pA2 (Substance-K receptor [2])	pA2 (Neuromedin-K receptor [3])	Ki (Substance-P receptor) [µM]	Kb (Substance-K receptor [7]) [µM]	Kb (Neuromedin-K receptor [8]) [µM]	SMILES	Effective dose (Cavia porcellus [4]) [mg/kg]	Effective dose (Cavia porcellus [5]) [mM]	ED50 (Cavia porcellus [6]) [µmol/kg]	ED50 (Cavia porcellus [4]; read-out: ID50 (the source's name)) [mg/kg]
2.4	5.6	5	–	–	–	CN(Cc1ccccc1)C(=O)[C@H](Cc1ccc2ccccc2c1)NC(=O)[C@H]1C[C@H](O)CN1C(=O)c1cn(CCCCc2nnn[nH]2)c2ccccc12	–	–	–	–
4.2	5.2	5.5	0.0024	–	–	O=C(OCc1cc(C(F)(F)F)cc(C(F)(F)F)c1)[C@H](Cc1c[nH]c2ccccc12)NC(=O)[C@H]1C[C@H](O)CN1C(=O)c1cn(CCCCc2nnn[n-]2)c2ccccc12.[K+]	0.026	0.5	0.05	–
–	–	–	–	> 100	> 100	COc1ccccc1CN[C@H]1CCCN[C@H]1c1ccccc1 [CP-99994]	–	–	–	0.014
–	–	–	–	6.31	6.31	CC(=O)N[C@@H](Cc1c[nH]c2ccccc12)C(=O)OCc1cc(C(F)(F)F)cc(C(F)(F)F)c1 [L-732138]	–	–	–	–
